# US10329294B2, “Pyrazolopyrimidine inhibitors of IRAK4 activity” (MERCK SHARP & DOHME CORP., priority 2015, dated 2019)
# Structures can show the parent of a compound that is named as a salt.
# Target: IRAK4 (Homo sapiens (Human), UniProt Q9NWZ3)
# Test: IRAK4 Kinase Assay
# Assay type: biochemical
# Settings: IMAP fluorescence polarization, 0.5 nM GST tagged IRAK4, 100 μM ATP, 30 minutes at 25° C.; read-out: IRAK4 IC50
# IRAK4, sequence (Q9NWZ3 whole entry): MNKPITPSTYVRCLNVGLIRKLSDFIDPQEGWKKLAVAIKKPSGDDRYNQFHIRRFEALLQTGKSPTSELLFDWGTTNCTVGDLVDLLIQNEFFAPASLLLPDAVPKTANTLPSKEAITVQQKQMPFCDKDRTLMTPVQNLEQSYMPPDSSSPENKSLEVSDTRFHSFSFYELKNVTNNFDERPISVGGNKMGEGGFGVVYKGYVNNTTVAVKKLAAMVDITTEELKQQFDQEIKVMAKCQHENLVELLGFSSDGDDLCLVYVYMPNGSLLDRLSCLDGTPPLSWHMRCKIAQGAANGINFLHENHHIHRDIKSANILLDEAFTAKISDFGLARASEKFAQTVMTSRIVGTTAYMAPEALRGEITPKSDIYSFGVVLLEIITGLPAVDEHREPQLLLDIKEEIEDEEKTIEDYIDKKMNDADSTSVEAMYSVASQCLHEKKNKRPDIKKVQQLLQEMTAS
row,Structure (SMILES),IC50 [nM]
1,"Cn1cc(NC(=O)c2cnn3ccc(N4CCCNC5(CC5)C4)nc23)c(C(F)(F)F)n1 [Example 227, 5-(4,8-diazaspiro[2.6]non-8-yl)-N-[1-methyl-3-(trifluoromethyl)-1H-pyrazol-4-yl]pyrazolo[1,5-a]pyrimidine-3-carboxamide]",451
2,"Cn1cc(NC(=O)c2cnn3ccc(N4CC5CNC(COC5)C4)nc23)c(C(F)(F)F)n1 (stereo not drawn) [Example 80, N-[1-methyl-3-(trifluoromethyl)-1H-pyrazol-4-yl]-5-(3-oxa-7,9-diazabicyclo[3.3.2]dec-7-yl)pyrazolo[1,5-a]pyrimidine-3-carboxamide trifluoroacetate]",29
3,"Cn1cc(NC(=O)c2cnn3ccc(N4CC5CCC(C4)N5)nc23)c(C(F)F)n1 [Example 172, 5-(3,8-diazabicyclo[3.2.1]oct-3-yl)-N-[3-(difluoromethyl)-1-methyl-1H-pyrazol-4-yl]pyrazolo[1,5-a]pyrimidine-3-carboxamide trifluoroacetate]",1
4,"Cn1cc(NC(=O)c2cnn3ccc(N[C@H]4CCC(F)(F)C[C@H]4N)nc23)c(C(F)F)n1 (single isomer, unassigned) [Example 209, 5-{[(1S,2R)- or (1R,2S)-2-amino-4,4-difluorocyclohexyl]amino}-N-[3-(difluoromethyl)-1-methyl-1H-pyrazol-4-yl]pyrazolo[1,5-a]pyrimidine-3-carboxamide]",1
5,"Cn1cc(NC(=O)c2cnn3ccc(N4CC[C@@H]5CC[C@H](C4)N5)nc23)c(C(F)(F)F)n1 (single isomer, unassigned) [Example 94, 5-[(1R,6S)- or (1S,6R)-3,9-diazabicyclo[4.2.1]non-3-yl]-N-[1-methyl-3-(trifluoromethyl)-1H-pyrazol-4-yl]pyrazolo[1,5-a]pyrimidine-3-carboxamide trifluoroacetate]",70
6,"Cn1cc(NC(=O)c2cnn3ccc(NC4CNCCC4F)nc23)c(C(F)F)n1 (single isomer, unassigned) [Example 236, N-[3-(difluoromethyl)-1-methyl-1H-pyrazol-4-yl]-5-[(3R or S, 4R or S-4-fluoropiperidin-3-yl)amino]pyrazolo[1,5-a]pyrimidine-3-carboxamide]",0.6
7,"Cn1cc(NC(=O)c2cnn3ccc(N[C@@H]4CNC[C@H](F)C4)nc23)c(C(F)F)n1 [Example 259, N-[3-(difluoromethyl)-1-methyl-1H-pyrazol-4-yl]-5-{[(3S,5R)-5-fluoropiperidin-3-yl]amino}pyrazolo[1,5-a]pyrimidine-3-carboxamide]",156
8,"O=C(Nc1cn(C(F)F)nc1C(F)(F)F)c1cnn2ccc(N[C@@H]3CCCC[C@@H]3O)nc12 [Example 72, N-[1-(difluoromethyl)-3-(trifluoromethyl)-1H-pyrazol-4-yl]-5-{[(1R,2S)-2-hydroxycyclohexyl]amino} pyrazolo[1,5-a]pyrimidine-3-carboxamide trifluoroacetate]",141
9,"Cc1cnc(-c2nn(C)cc2NC(=O)c2cnn3ccc(N[C@@H]4CCCC[C@@H]4N)nc23)o1 [Example 285, 5-{[(1R,2S)-2-aminocyclohexyl]amino}-N-[1-methyl-3-(5-methyl-1,3-oxazol-2-yl)-1H-pyrazol-4-yl]pyrazolo[1,5-a]pyrimidine-3-carboxamide trifluoroacetate]",24
10,"Cn1cc(NC(=O)c2cnn3ccc(N[C@@H]4CCCC[C@@H]4N)nc23)c(CCF)n1 [Example 289, 5-{[(1R,2S)-2-aminocyclohexyl]amino}-N-[3-(2-fluoroethyl)-1-methyl-1H-pyrazol-4-yl]pyrazolo[1,5-a]pyrimidine-3-carboxamide trifluoroacetate]",3
11,"Cn1cc(NC(=O)c2cnn3ccc(NC4CNCC(F)(F)C4)nc23)c(C(F)(F)F)n1 (stereo not drawn) [Example 217, 5-[(5,5-difluoropiperidin-3-yl)amino]-N-[1-methyl-3-(trifluoromethyl)-1H-pyrazol-4-yl]pyrazolo[1,5-a]pyrimidine-3-carboxamide]",47
12,"Cn1cc(NC(=O)c2cnn3ccc(N4C[C@@H]5CNC[C@H]4C5)nc23)c(C(F)F)n1 (single isomer, unassigned) [Example 239, 5-[(1S,5R)- or (1R,5S)-3,6-diazabicyclo[3.2.1]oct-6-yl]-N-[3-(difluoromethyl)-1-methyl-1H-pyrazol-4-yl]pyrazolo[1,5-a]pyrimidine-3-carboxamide]",3
13,"CC1CN(c2ccn3ncc(C(=O)Nc4cn(C)nc4C(F)(F)F)c3n2)C(C)CN1 (stereo not drawn) [Example 79, 5-(2,5-dimethylpiperazin-1-yl)-N-[1-methyl-3-(trifluoromethyl)-1H-pyrazol-4-yl]pyrazolo[1,5-a]pyrimidine-3-carboxamide trifluoroacetate]",62

# The next lines start with the values.
row,IC50 [nM],Structure (SMILES)
1,3360,"O=C(Nc1ccccc1Br)c1cnn2ccc(N3CCCNCC3)nc12 [Example 109, N-(2-bromophenyl)-5-(1,4-diazepan-1-yl)pyrazolo[1,5-a]pyrimidine-3-carboxamide trifluoroacetate]"
2,8080,"O=C(Nc1ccccc1I)c1cnn2ccc(N3CCNCC4(CC4)C3)nc12 [Example 100, 5-(5,8-diazaspiro[2.6]non-5-yl)-N-(2-iodophenyl)pyrazolo[1,5-a]pyrimidine-3-carboxamide trifluoroacetate]"
3,1,"Cn1cc(NC(=O)c2cnn3ccc(N4C[C@@H](N)C[C@@H](F)C4)nc23)c(C(F)F)n1 [Example 249, 5-[(3S,5R)-3-amino-5-fluoropiperidin-1-yl]-N-[3-(difluoromethyl)-1-methyl-1H-pyrazol-4-yl]pyrazolo[1,5-a]pyrimidine-3-carboxamide trifluoroacetate]"
4,1010,"O=C(Nc1ccsc1C(F)(F)F)c1cnn2ccc(N3CCCNCC3)nc12 [Example 153, 5-(1,4-diazepan-1-yl)-N-[2-(trifluoromethyl)thiophen-3-yl]pyrazolo[1,5-a]pyrimidine-3-carboxamide trifluoroacetate]"
5,17,"CC(C)n1cc(NC(=O)c2cnn3ccc(N4CCNCC4)nc23)c(C(F)(F)F)n1 [Example 298, N-[1-(1-methylethyl)-3-(trifluoromethyl)-1H-pyrazol-4-yl]-5-piperazin-1-ylpyrazolo[1,5-a]pyrimidine-3-carboxamide trifluoroacetate]"
6,49,"Cn1cc(NC(=O)c2cnn3ccc(N4CC5CCC4CN5)nc23)c(C#N)n1 (stereo not drawn) [Example 136, N-(3-cyano-1-methyl-1H-pyrazol-4-yl)-5-(2,5-diazabicyclo[2.2.2]oct-2-yl)pyrazolo[1,5-a]pyrimidine-3-carboxamide trifluoroacetate]"
7,18,"Cn1cc(NC(=O)c2cnn3ccc(N[C@H]4CCCCNC4)nc23)c(C(F)(F)F)n1 (single isomer, unassigned) [Example 159, 5-[(3S)- or (3R)-azepan-3-ylamino]-N-[1-methyl-3-(trifluoromethyl)-1H-pyrazol-4-yl]pyrazolo[1,5-a]pyrimidine-3-carboxamide trifluoroacetate]"
8,49,"Cn1cc(NC(=O)c2cnn3ccc(N4CCNC(C(F)F)C4)nc23)c(C(F)(F)F)n1 (stereo not drawn) [Example 16, 5-[3-(difluoromethyl)piperazin-1-yl]-N-[1-methyl-3-(trifluoromethyl)-1H-pyrazol-4-yl]pyrazolo[1,5-a]pyrimidine-3-carboxamide formate]"
9,24,"Cn1cc(NC(=O)c2cnn3ccc(N4CCNCC4C4CC4)nc23)c(C(F)(F)F)n1 (stereo not drawn) [Example 29, 5-(2-cyclopropylpiperazin-1-yl)-N-[1-methyl-3-(trifluoromethyl)-1H-pyrazol-4-yl]pyrazolo[1,5-a]pyrimidine-3-carboxamide trifluoroacetate]"
10,41,"Cn1cc(NC(=O)c2cnn3ccc(N4CC5CC4CCN5)nc23)c(C(F)(F)F)n1 (stereo not drawn) [Example 74, 5-(2,6-diazabicyclo[3.2.1]oct-6-yl)-N-[1-methyl-3-(trifluoromethyl)-1H-pyrazol-4-yl]pyrazolo[1,5-a]pyrimidine-3-carboxamide trifluoroacetate]"
11,0.5,"Cn1cc(NC(=O)c2cnn3ccc(N4CCC[C@@H](N)C4)nc23)c(C(F)F)n1 [Example 90, 5-[(3R)-3-aminopiperidin-1-yl]-N-[3-(difluoromethyl)-1-methyl-1H-pyrazol-4-yl]pyrazolo[1,5-a]pyrimidine-3-carboxamide trifluoroacetate]"
12,660,"N#Cc1ccccc1NC(=O)c1cnn2ccc(N3CCNCC3)nc12 [Example 274, N-(2-cyanophenyl)-5-piperazin-1-ylpyrazolo[1,5-a]pyrimidine-3-carboxamide trifluoroacetate]"
13,179,"Cn1cc(NC(=O)c2cnn3ccc(N4CC5CC4CN5)nc23)c(C(F)(F)F)n1 (stereo not drawn) [Example 13, 5-(2,5-diazabicyclo[2.2.1]hept-2-yl)-N-[1-methyl-3-(trifluoromethyl)-1H-pyrazol-4-yl]pyrazolo[1,5-a]pyrimidine-3-carboxamide hydrochloride]"
14,128,"Cn1cc(NC(=O)c2cnn3ccc(N4C[C@@H]5CC[C@H]4CN5)nc23)c(Cl)n1 (single isomer, unassigned) [Example 151, N-(3-chloro-1-methyl-1H-pyrazol-4-yl)-5-[(1S,4S)- or (1R,4R)-(2,5-diazabicyclo[2.2.2]oct-2-yl]pyrazolo[1,5-a]pyrimidine-3-carboxamide trifluoroacetate]"
15,71,"Cn1cc(NC(=O)c2cnn3ccc(N4CCNC(C)(C)C4)nc23)c(C(F)(F)F)n1 [Example 30, 5-(3,3-dimethylpiperazin-1-yl)-N-[1-methyl-3-(trifluoromethyl)-1H-pyrazol-4-yl]pyrazolo[1,5-a]pyrimidine-3-carboxamide trifluoroacetate]"
16,2,"N[C@H]1CCCC[C@H]1Nc1ccn2ncc(C(=O)Nc3ccccc3Br)c2n1 [Example 113, 5-{[(1R,2S)-2-aminocyclohexyl]amino}-N-(2-bromophenyl)pyrazolo[1,5-a]pyrimidine-3-carboxamide trifluoroacetate]"
17,0.5,"Cn1cc(NC(=O)c2cnn3ccc(N[C@@H]4CCCNC4)nc23)c(C(F)(F)F)n1 [Example 9, N-[1-methyl-3-(trifluoromethyl)-1H-pyrazol-4-yl]-5-[(3R)-piperidin-3-ylamino]pyrazolo[1,5-a]pyrimidine-3-carboxamide trifluoroacetate]"
